Where two headings read alike, the source gives them in different places.
Key:
[1] = test system: Erysiphe graminis f. sp. tritici; assay: antifungal effect on Erysiphe graminis (powdery mildew on wheat plants, glasshouse); type: in vivo; conditions: Blumeria graminis; for inhibition at 25 µg/mL: 25 μg/ml; for inhibition at 50 µg/mL: 50 μg/ml; for inhibition at 100 µg/mL: 100 μg/ml; for inhibition at 200 µg/mL: 200 μg/ml; for inhibition at 400 µg/mL: 400 μg/ml; for inhibition at 150 µg/mL: 150 μg/ml
Experimental: The compounds of the general Formula (I) are particularly effective against powdery mildew. In Table IV the activity of some compounds of the general […] against Erysiphe graminis f. sp. tritici strain are disclosed.
The following test method is used: Glasshouse conditions: temperature 20° C.; relative humidity 80%; strength of illumination 6000 lux. The test plants MV-9 Automn wheat are cultivated in pots diameter 20 cm in a 1:1 mixture of sand and perlite. The average number of plants per pot amounts to 180, the height of the plants is 6-7 cm. About 8 ml of the aqueous suspension of the test compound is applied onto the plants with the aid of a sprayer.
The rate of infectedness is determined after 8 days. Activity is calculated from the percental inhibition values. As control commercial products Fundazol 50 WP and Karathene LC 50 are used.

[2] = carrageenin edema inhibition in rats (antiphlogistic effect), Winter method; type: in vivo, male Wistar rats; conditions: Rattus norvegicus, po; for inhibition in vivo at 12.5 mg/kg: 12.5 mg/kg p.o.; for inhibition in vivo at 25 mg/kg: 25 mg/kg p.o.; for inhibition in vivo at 50 mg/kg: 50 mg/kg p.o.; for inhibition in vivo at 100 mg/kg: 100 mg/kg p.o.
Experimental: Thus the orally administered compounds of the general Formula (I) efficiently reduce acute inflammatory processes. According to the method of Winter [Proc. Soc. Exp. Biol. Med. 111, 544 (1962)] carrageenin edema is induced and evaluated on male Wistar rats fasted for 16 hours body weight 160-180 g. Percental inhibition is calculated from the average edema values of the groups treated with the test compound on the one hand and with carrier carboxy methyl cellulose, CMC; control on the other. ED50 values are determined by means of regression analysis of the inhibition values. The test compounds are administered through a stomach canule in the form of a 1% carboxy methyl cellulose (CMC) suspension, one hour before introducing the carrageenin injection.

[3] = hot (56° C.) plate test on mice (analgesic effect); type: in vivo, male and female CFLP strain mice; conditions: Mus musculus, po, 1 h, read-out: Lengthening of reaction time in %; for change in vivo at 25 mg/kg: 25 mg/kg p.o.; for change in vivo at 50 mg/kg: 50 mg/kg p.o.; for change in vivo at 100 mg/kg: 100 mg/kg p.o.; for change in vivo at 12.5 mg/kg: 12.5 mg/kg p.o.
Experimental: The analgesic effect of the compounds of the present invention is tested according to the hot (56° C.) plate test on male and female CFLP strain mice weighing 18-22 g. The point of time of the appearence of the deterring reaction Abwehrreaktion is determined and related to the latent time measured on the control group Woolfe and McDonald 1944. At least 10 animals are used per dose. […] The test is carried out on separated male Wistar rats weighing 180-210 g and fasted for 16 hours. The test compounds are suspended in 1% carboxy methyl cellulose and administered orally in a dose of 10 ml/kg.

[4] = adjuvant induced arthritis in rats, method of Newbold; type: in vivo, male Wistar rats; conditions: Rattus norvegicus, po, 504 h, read-out: Percental inhibition of the growth of paw volume, on the 21st day; for inhibition in vivo at 25 mg/kg: 25 mg/kg p.o. daily for two weeks
Experimental: According to the method of Newbold 0.1 ml of Freund complet adjuvant (Difco Lab. Mich. […] The volume of the hind paws is measured before and 21 days after the administration of the adjuvant with the aid of a mercury plethysmometer. […] In Table II the "percental inhibition of the growth of paw volume" relates to the value determined on the 21st day. […] The tests show furthermore that the compounds of the present invention are active not only in healing morphological deformations but effect in a desirable and useful manner the functional condition and fitness of the feet, moreover the general physical state and condition of the animals, too.

[5] = ulcerogenic effect (stomach haemorrhage and ulcers); type: in vivo, male Wistar rats; conditions: rat, po, acute test, rats, five hours after treatment, read-out: UD50
Experimental: Five hours after treatment the animals are sacrificed and their stomachs are placed into a 2.5% formaline solution. The number and rate of punctiform haemorrhage and ulcers is evaluated according to the following scale:
1=some punctiform haemorrhage (<10);
2=diffuse haemorrhage or small ulcer (<2 mm);
3=two or more minor small ulcer (<2 mm);
4=one or more large ulcer (>2 mm).

[6] = rats, read-out: Percental inhibition of paw volume
[7] = carrageenin edema, rats, p.o., regression analysis, read-out: ED50
[8] = read-out: Percental inhibition of paw volume

| Structure (SMILES) | inhibition in vivo at 12.5 mg/kg [2, 6] [%] | inhibition in vivo at 25 mg/kg [2, 6] [%] | inhibition in vivo at 50 mg/kg [2, 6] [%] | inhibition in vivo at 100 mg/kg [2, 6] [%] | ED50 [2, 7] [mg/kg] | change in vivo at 25 mg/kg [3] [%] | change in vivo at 50 mg/kg [3] [%] | change in vivo at 100 mg/kg [3] [%] | inhibition in vivo at 25 mg/kg [4] [%] | also measured |
| --- | --- | --- | --- | --- | --- | --- | --- | --- | --- | --- |
| Cc1cc(-n2cncn2)c2cccc(Cl)c2n1 [Compound 10] | – | – | – | – | – | – | – | – | – | inhibition at 25 µg/mL [1]: 20.3%; inhibition at 50 µg/mL [1]: 42.8%; inhibition at 100 µg/mL [1]: 76.4%; inhibition at 200 µg/mL [1]: 92.7%; inhibition at 400 µg/mL [1]: 90.1% |
| Cc1cc2ccccc2nc1Sc1nc[nH]n1 [Compound 107] | 29 | 40 | 70 | 74 | 30.6 | 34 | 41 | 88 | 17.8 | – |
| Cc1cc2cccc(C)c2nc1Sc1nc[nH]n1 [Compound 110] | 10 | 42 | 46 | 61 | 51.4 | 21 | 34 | 52 | 32.1 | – |
| COc1ccc2cc([C@H](C)C(=O)O)ccc2c1 [Naproxen, reference compound] | 33 | 49 | 64 | 71 | 28.7 | 31 | 45 | 49 | 28.4 | change in vivo at 12.5 mg/kg [3]: 25%; inhibition in vivo at 12.5 mg/kg ([4]; 12.5 mg/kg p.o.): 16.8% |
| Cc1cc(-n2cncn2)c2ccc(Cl)c(Cl)c2n1 [Compound 22] | – | – | – | – | – | – | – | – | – | inhibition at 25 µg/mL [1]: 40.8%; inhibition at 50 µg/mL [1]: 67.7%; inhibition at 100 µg/mL [1]: 79.8%; inhibition at 200 µg/mL [1]: 93%; inhibition at 400 µg/mL [1]: 96.9% |
| Cc1cc(Sc2n[nH]c(C)n2)c2cccc(C(F)(F)F)c2n1 [Compound 67] | – | – | – | – | – | – | – | – | 32.8 | – |
| Cc1cc(Sc2n[nH]c(C)n2)c2ccc(Cl)c(C)c2n1 [Compound 69] | 27 | 33 | 52 | 86 | 35 | 13 | 24 | 30 | 35.2 | – |
| Cc1cc(-n2cncn2)c2cccc(C)c2n1 [Compound 6, 4-(1H-1,2,4-triazole-1-yl)-2,8-dimethyl-quinoline] | – | – | – | – | – | – | – | – | – | inhibition at 25 µg/mL [1]: 49.2%; inhibition at 50 µg/mL [1]: 71.6%; inhibition at 100 µg/mL [1]: 85.1%; inhibition at 200 µg/mL [1]: 89.5%; inhibition at 400 µg/mL [1]: 99.4% |
| CCc1nc(Sc2cc(C)nc3ccc(C)cc23)n[nH]1 [Compound 74] | 26 | 55 | 69 | – | 25.7 | 19 | 26 | 43 | – | – |
| COc1ccc2c(c1)c(CC(=O)O)c(C)n2C(=O)c1ccc(Cl)cc1 [Indomethacin, reference compound] | – | – | – | – | – | – | – | – | – | ED50 [2]: 4.1 mg/kg; inhibition in vivo at 1 mg/kg [2, 8]: 28%; inhibition in vivo at 2 mg/kg [2, 8]: 40%; inhibition in vivo at 4 mg/kg [2, 8]: 47%; inhibition in vivo at 8 mg/kg [2, 8]: 64%; inhibition in vivo at 12 mg/kg [2, 8]: 67%; TD50 at 5 h [5]: 6.3 mg/kg |
| Cc1ccc2cc(C)c(-n3cncn3)nc2c1 [Compound 85] | – | – | – | – | – | – | – | – | 28.4 | – |
| Cc1cc(Sc2nc[nH]n2)c2cccc(Cl)c2n1 [Compound 46] | – | – | – | – | – | 7 | 18 | 38 | 28.1 | – |
| Cc1cc(Sc2n[nH]c(C)n2)c2ccccc2n1 [Compound 62] | 18 | 51 | 59 | 69 | 38.4 | 19 | 30 | 38 | 40.3 | change in vivo at 12.5 mg/kg [3]: 17% |
| Cc1cc2ccccc2nc1-n1cncn1 [Compound 83, 2-(1H-1,2,4-triazole-1-yl)-3-methyl-quinoline] | 21 | 63 | 70 | 72 | 28.1 | 16 | 28 | 59 | 46.7 | – |
| Cc1cc(Sc2n[nH]c(C)n2)c2cccc(C)c2n1 [Compound 64] | 15 | 27 | 44 | 65 | 59.1 | 17 | 39 | 44 | 40.6 | – |
| CCc1nc(Sc2nc3ccc(C)cc3cc2C)n[nH]1 [Compound 138] | – | – | – | – | – | 25 | 37 | 82 | 35.2 | – |
| Cc1ccc2nc(Sc3nc[nH]n3)c(C)cc2c1 [Compound 108] | 19 | 45 | 61 | 70 | 38.5 | 34 | 46 | 46 | 35.2 | – |
| Cc1ccc2cc(C)c(Sc3nc[nH]n3)nc2c1 [Compound 109] | – | – | – | – | – | – | – | – | 36.7 | – |
| Clc1ccc2c(-n3cncn3)ccnc2c1 [Compound 1, 4-(1H-1,2,4-triazole-1-yl)-7-chloro-quinoline] | – | – | – | – | – | – | – | – | – | inhibition at 37.5 µg/mL ([1]; 37.5 μg/ml): 50.6%; inhibition at 50 µg/mL [1]: 72.6%; inhibition at 75 µg/mL ([1]; 75 μg/ml): 83%; inhibition at 100 µg/mL [1]: 85.3%; inhibition at 150 µg/mL [1]: 36.8%; inhibition at 200 µg/mL [1]: 90.1%; inhibition at 400 µg/mL [1]: 99.6% |
| COc1cccc2c(-n3cncn3)cc(C)nc12 [Compound 8] | – | – | – | – | – | – | – | – | – | inhibition at 25 µg/mL [1]: 42.1%; inhibition at 50 µg/mL [1]: 70.9%; inhibition at 100 µg/mL [1]: 82%; inhibition at 150 µg/mL [1]: 84.1%; inhibition at 200 µg/mL [1]: 91.9%; inhibition at 400 µg/mL [1]: 98.8% |
| Cc1nc(Sc2ccnc3cc(Cl)ccc23)n[nH]1 [Compound 61] | 29 | 37 | – | 58 | 60.9 | 20 | 22 | 26 | 38.2 | – |
| CCCCC1C(=O)N(c2ccccc2)N(c2ccccc2)C1=O [Phenylbutazon, reference compound] | – | 21 | 42 | 45 | 101 | – | – | 29 | – | inhibition in vivo at 200 mg/kg ([2]; 200 mg/kg p.o., rats, read-out: Percental inhibition of paw volume): 66%; change in vivo at 150 mg/kg ([3]; 150 mg/kg p.o.): 42%; change in vivo at 200 mg/kg ([3]; 200 mg/kg p.o.): 44%; inhibition in vivo at 50 mg/kg ([4]; 50 mg/kg p.o.): 18.5% |

From US5104884A, “Triazolyl quinoline derivatives” (Alkaloida Vegyeszeti Gyar, priority 1985, dated 1992)
